Source: ChEMBL document CHEMBL3044858, “Design, synthesis, and biological evaluation of new 4-thiazolidinone derivatives substituted with benzimidazole ring as potential chemotherapeutic agents” (Med Chem Res, 2013)
The source made the active and inactive calls. The calls are words filed in the database; no cut-off is given here.

How the values were obtained:
[1] = Cytotoxicity against lymphocytes in Homo sapiens (human) whole blood assessed as inhibition of cell viability after 24 to 96 hr by neutral red uptake assay; format: tissue-based; conditions: Lymphocyte
[2] = test system: Hepatitis C virus; experiment: Antiviral activity against Hepatitis C virus infected HepG2 cells assessed as disappearance of (+) and or (-) strands of viral RNA at 0.295 uM after 96 hr by qualitative RT-PCR analysis; format: functional, organism-based; conditions: Hepacivirus hominis
[3] = test system: Hepatitis C virus; experiment: Antiviral activity against Hepatitis C virus isolated from PBMC of infected patient assessed as disappearance of (+) and or (-) strands of viral RNA at 0.295 uM after 96 hr by qualitative RT-PCR analysis; format: functional, organism-based; conditions: Hepacivirus hominis
[4] = test system: Blood; experiment: Toxicity in Homo sapiens (human) blood assessed as hemolysis
[5] = test system: MCF7; experiment: Anticancer activity against Homo sapiens (human) MCF7 cells assessed as cell growth at 100 uM after 48 hr by SRB assay; format: functional, cell-based; conditions: MCF7, 48 h; for growth at 100 µM: read-out: Activity
[6] = test system: HCT-116; experiment: Anticancer activity against Homo sapiens (human) HCT116 cells assessed as cell growth at 100 uM after 48 hr by SRB assay; format: functional, cell-based; conditions: HCT-116, 48 h; for growth at 100 µM: read-out: Activity
[7] = test system: HepG2; experiment: Anticancer activity against Homo sapiens (human) HepG2 cells assessed as cell growth at 100 uM after 48 hr by SRB assay; format: functional, cell-based; conditions: HepG2, 48 h; for growth at 100 µM: read-out: Activity
[8] = test system: MCF7; experiment: Anticancer activity against Homo sapiens (human) MCF7 cells assessed as growth inhibition after 48 hr by SRB assay; format: functional, cell-based; conditions: MCF7, 48 h
[9] = test system: HCT-116; experiment: Anticancer activity against Homo sapiens (human) HCT116 cells assessed as growth inhibition after 48 hr by SRB assay; format: functional, cell-based; conditions: HCT-116, 48 h
[10] = test system: Hepatitis C virus; experiment: Antiviral activity against Hepatitis C virus isolated from PBMC of infected patient assessed as disappearance of (+) and or (-) strands of viral RNA at 0.30 uM after 96 hr by qualitative RT-PCR analysis; format: functional, organism-based; conditions: Hepacivirus hominis
[11] = test system: Hepatitis C virus; experiment: Antiviral activity against Hepatitis C virus infected HepG2 cells assessed as disappearance of (+) and or (-) strands of viral RNA at 0.30 uM after 96 hr by qualitative RT-PCR analysis; format: functional, organism-based; conditions: Hepacivirus hominis
[12] = test system: Hepatitis C virus; experiment: Antiviral activity against Hepatitis C virus isolated from PBMC of infected patient assessed as disappearance of (+) and or (-) strands of viral RNA at 0.647 uM after 96 hr by qualitative RT-PCR analysis; format: functional, organism-based; conditions: Hepacivirus hominis
[13] = test system: Hepatitis C virus; experiment: Antiviral activity against Hepatitis C virus infected HepG2 cells assessed as disappearance of (+) and or (-) strands of viral RNA at 0.647 uM after 96 hr by qualitative RT-PCR analysis; format: functional, organism-based; conditions: Hepacivirus hominis
[14] = test system: Hepatitis C virus; experiment: Antiviral activity against Hepatitis C virus isolated from PBMC of infected patient assessed as disappearance of (+) and or (-) strands of viral RNA at 0.611 uM after 96 hr by qualitative RT-PCR analysis; format: functional, organism-based; conditions: Hepacivirus hominis
[15] = test system: Hepatitis C virus; experiment: Antiviral activity against Hepatitis C virus infected HepG2 cells assessed as disappearance of (+) and or (-) strands of viral RNA at 0.611 uM after 96 hr by qualitative RT-PCR analysis; format: functional, organism-based; conditions: Hepacivirus hominis
[16] = test system: Hepatitis C virus; experiment: Antiviral activity against Hepatitis C virus infected in HepG2 cells assessed as disappearance of (+) and or (-) strands of viral RNA at 0.312 uM after 96 hr by qualitative RT-PCR analysis; format: functional, organism-based; conditions: Hepacivirus hominis
[17] = test system: Hepatitis C virus; experiment: Antiviral activity against Hepatitis C virus isolated from PBMC of infected patient assessed as disappearance of (+) and or (-) strands of viral RNA at 0.312 uM after 96 hr by qualitative RT-PCR analysis; format: functional, organism-based; conditions: Hepacivirus hominis
[18] = test system: HepG2; experiment: Anticancer activity against Homo sapiens (human) HepG2 cells assessed as growth inhibition after 48 hr by SRB assay; format: functional, cell-based; conditions: HepG2, 48 h
[19] = target: T1, Arylamine N-acetyltransferase 1 (Homo sapiens, UniProt P18440); experiment: Inhibition of Homo sapiens (human) arylamine N-acetyltransferase 1
T1 sequence (P18440 whole entry): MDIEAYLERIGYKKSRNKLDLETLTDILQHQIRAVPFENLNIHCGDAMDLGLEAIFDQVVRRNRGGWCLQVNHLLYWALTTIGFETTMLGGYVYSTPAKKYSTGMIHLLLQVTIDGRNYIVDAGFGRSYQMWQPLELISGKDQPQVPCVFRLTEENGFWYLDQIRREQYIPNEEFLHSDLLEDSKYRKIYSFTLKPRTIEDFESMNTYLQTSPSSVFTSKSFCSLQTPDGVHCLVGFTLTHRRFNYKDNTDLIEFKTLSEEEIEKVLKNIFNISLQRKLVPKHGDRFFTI

[20] = test system: Hepatitis C virus; experiment: Antiviral activity against Hepatitis C virus isolated from PBMC of infected patient assessed as disappearance of (+) and or (-) strands of viral RNA at 0.108 uM after 96 hr by qualitative RT-PCR analysis; format: functional, organism-based; conditions: Hepacivirus hominis
[21] = test system: Hepatitis C virus; experiment: Antiviral activity against Hepatitis C virus infected HepG2 cells assessed as disappearance of (+) and or (-) strands of viral RNA at 0.108 uM after 96 hr by qualitative RT-PCR analysis; format: functional, organism-based; conditions: Hepacivirus hominis
[22] = test system: Hepatitis C virus; experiment: Antiviral activity against Hepatitis C virus infected HepG2 cells assessed as disappearance of (+) and or (-) strands of viral RNA at 1.116 uM after 96 hr by qualitative RT-PCR analysis; format: functional, organism-based; conditions: Hepacivirus hominis
[23] = test system: Hepatitis C virus; experiment: Antiviral activity against Hepatitis C virus isolated from PBMC of infected patient assessed as disappearance of (+) and or (-) strands of viral RNA at 1.116 uM after 96 hr by qualitative RT-PCR analysis; format: functional, organism-based; conditions: Hepacivirus hominis
[24] = test system: Hepatitis C virus; experiment: Antiviral activity against Hepatitis C virus infected HepG2 cells assessed as disappearance of (+) and or (-) strands of viral RNA at 0.077 uM after 96 hr by qualitative RT-PCR analysis; format: functional, organism-based; conditions: Hepacivirus hominis
[25] = test system: Hepatitis C virus; experiment: Antiviral activity against Hepatitis C virus isolated from PBMC of infected patient assessed as disappearance of (+) and or (-) strands of viral RNA at 0.077 uM after 96 hr by qualitative RT-PCR analysis; format: functional, organism-based; conditions: Hepacivirus hominis
[26] = test system: Hepatitis C virus; experiment: Antiviral activity against Hepatitis C virus infected HepG2 cells assessed as disappearance of (+) and or (-) strands of viral RNA at 0.078 uM after 96 hr by qualitative RT-PCR analysis; format: functional, organism-based; conditions: Hepacivirus hominis
[27] = test system: Hepatitis C virus; experiment: Antiviral activity against Hepatitis C virus isolated from PBMC of infected patient assessed as disappearance of (+) and or (-) strands of viral RNA at 0.078 uM after 96 hr by qualitative RT-PCR analysis; format: functional, organism-based; conditions: Hepacivirus hominis
[28] = test system: Hepatitis C virus; experiment: Antiviral activity against Hepatitis C virus infected in HepG2 cells assessed as disappearance of (+) and or (-) strands of viral RNA at 0.394 uM after 96 hr by qualitative RT-PCR analysis; format: functional, organism-based; conditions: Hepacivirus hominis
[29] = test system: Hepatitis C virus; experiment: Antiviral activity against Hepatitis C virus isolated from PBMC of infected patient assessed as disappearance of (+) and or (-) strands of viral RNA at 0.394 uM after 96 hr by qualitative RT-PCR analysis; format: functional, organism-based; conditions: Hepacivirus hominis

Row | SMILES | IC50 [1] | Activity [4] | growth at 100 µM [5] | growth at 100 µM [6] | growth at 100 µM [7] | IC50 [8] | also measured
1 | CN(C)c1ccc(/C=C2\SC(=S)N(Cc3nc4ccccc4[nH]3)C2=O)cc1 | 14.8 µM | Non-toxic | – | – | – | – | Activity [2]: inactive; Activity [3]: inactive
2 | O=C1/C(=C/c2ccccc2Cl)SC(=S)N1Cc1nc2ccccc2[nH]1 | – | – | -4.32% | 27.6% | 9.07% | 39.6 µM | –
3 | COc1ccc(/C=C2/S/C(=N\c3ccccc3)N(Cc3nc4ccccc4[nH]3)C2=O)c(OC)c1 | – | – | -1.19% | 15.5% | 18.4% | – | –
4 | O=C1/C(=C\c2ccccc2)S/C(=N\c2ccccc2)N1Cc1nc2ccccc2[nH]1 | – | – | -0.69% | 7% | 24.4% | – | IC50 [9]: 7.3 µM
5 | CC(=O)NS(=O)(=O)c1ccc(N/N=C2/SC(=S)N(Cc3nc4ccccc4[nH]3)C2=O)cc1 | 15.3 µM | Non-toxic | – | – | – | – | Activity [10]: inactive; Activity [11]: inactive
6 | O=C1/C(=C\c2ccc(Cl)cc2)S/C(=N\c2ccccc2)N1Cc1nc2ccccc2[nH]1 | 32.4 µM | Non-toxic | – | – | – | – | Activity [12]: inactive; Activity [13]: inactive
7 | O=C1/C(=N\Nc2ccc(S(=O)(=O)Nc3ncccn3)cc2)SC(=S)N1Cc1nc2ccccc2[nH]1 | 30.6 µM | Non-toxic | – | – | – | – | Activity [14]: inactive; Activity [15]: inactive
8 | O=C1Nc2ccccc2/C1=C1/S/C(=N\c2ccccc2)N(Cc2nc3ccccc3[nH]2)C1=O | 15.6 µM | Non-toxic | – | – | – | – | Activity [16]: inactive; IC50 [5]: 7.07 µM; Activity [17]: inactive; IC50 [6]: 16.2 µM; IC50 [7]: 6.8 µM; IC50 [18]: 5.91 µM
9 | COc1ccc(/C=C2\SC(=S)N(Cc3nc4ccccc4[nH]3)C2=O)c(OC)c1 | – | – | 0.34% | 19.2% | 17.8% | – | –
10 | O=C1/C(=C\c2ccc([N+](=O)[O-])cc2)S/C(=N\c2ccccc2)N1Cc1nc2ccccc2[nH]1 | – | – | -0.79% | 18% | 24% | – | –
11 | O=C1NC(=O)/C(=C/c2ccccc2O)S1 | – | – | – | – | – | – | IC50 [19]: 1.1 µM
12 | COc1ccc(/C=C2\SC(=S)N(Cc3nc4ccccc4[nH]3)C2=O)cc1 | 54.3 µM | Non-toxic | -5.75% | 16.2% | 11.8% | 46.7 µM | Activity [20]: inactive; Activity [21]: inactive
13 | O=C1Nc2ccccc2/C1=C1/SC(=S)N(Cc2nc3ccccc3[nH]2)C1=O | 55.8 µM | Non-toxic | – | – | – | 35.4 µM | Activity [22]: inactive; Activity [23]: inactive
14 | COc1ccc(OC)c(/C=C2\SC(=S)N(Cc3nc4ccccc4[nH]3)C2=O)c1 | 39 µM | Non-toxic | -2.27% | 20.8% | 18.6% | 27.7 µM | Activity [24]: inactive; Activity [25]: inactive
15 | O=C1/C(=C/c2ccccc2)SC(=S)N1Cc1nc2ccccc2[nH]1 | – | – | – | – | – | 35.1 µM | –
16 | O=C1/C(=C/c2ccc([N+](=O)[O-])cc2)SC(=S)N1Cc1nc2ccccc2[nH]1 | 39.5 µM | Non-toxic | – | – | – | 39.4 µM | Activity [26]: inactive; Activity [27]: inactive
17 | Cc1ccc(/N=C2\S/C(=C\c3ccc(Cl)cc3)C(=O)N2Cc2nc3ccccc3[nH]2)cc1 | 19.7 µM | Non-toxic | – | – | – | – | Activity [28]: inactive; Activity [29]: inactive
18 | O=C1/C(=C/C=C/c2ccccc2)SC(=S)N1Cc1nc2ccccc2[nH]1 | – | – | -3.93% | 21.2% | 14.2% | 37.4 µM | –
19 | O=C1/C(=C\c2ccccc2Cl)S/C(=N\c2ccccc2)N1Cc1nc2ccccc2[nH]1 | – | – | -1.74% | 13.8% | 18.9% | 34.8 µM | –
